In patent US20070128217A1 (priority 2003, published 2007):

Assays:
[1] = test system: antibodies in sera from SARS patients (sera 1a, 1b, 2, 6, 37, 62, London, SARS-yellow, SARS-green); format: binding, human; design: Binding of serum 6 to linear peptides of protein X1 of SARS-CoV Urbani / Binding of serum 37 to linear peptides of protein X1 of SARS-CoV Urbani / Binding of serum 6 to looped/cyclic peptide (PEPSCAN-ELISA) / Binding of serum 37 to looped/cyclic peptide (PEPSCAN-ELISA) / Binding of serum 37 to looped/cyclic peptides of protein X1 of SARS-CoV Urbani / Binding of serum 6 to linear peptides of protein X2 / Binding of serum 37 to linear peptides of protein X2 / Binding of serum 37 to looped/cyclic peptides of protein X2 of SARS-CoV Urbani / Binding of serum 6 to linear peptides of protein M of SARS-CoV Urbani / Binding of serum 37 to linear peptides of protein M of SARS-CoV Urbani / Binding of serum 6 to looped/cyclic peptides of protein M of SARS-CoV Urbani / Binding of serum 37 to looped/cyclic peptides of protein M of SARS-CoV Urbani / Binding of serum 6 to linear peptides of protein X3 of SARS-CoV Urbani / Binding of serum 37 to linear peptides of protein X3 of SARS-CoV Urbani / Binding of serum 37 to looped/cyclic peptides of protein X3 of SARS-CoV Urbani / Binding of serum 6 to linear peptides of protein X4 of SARS-CoV Urbani / Binding of serum 37 to linear peptides of protein X4 of SARS-CoV Urbani / Binding of serum 37 to looped/cyclic peptides of protein X4 of SARS-CoV Urbani / Binding of serum 6 to linear peptides of protein X5 of SARS-CoV Urbani / Binding of serum 37 to linear peptides of protein X5 of SARS-CoV Urbani / Binding of serum 37 to looped/cyclic peptides of protein X5 of SARS-CoV Urbani / Binding of serum 6 to linear peptides of protein N of SARS-CoV Urbani / Binding of serum 37 to linear peptides of protein N of SARS-CoV Urbani / Binding of serum 6 to linear peptide (PEPSCAN-ELISA) / Binding of serum 1a to looped/cyclic peptides of protein N of SARS-CoV Urbani / Binding of serum 1b to looped/cyclic peptides of protein N of SARS-CoV Urbani / Binding of serum 2 to looped/cyclic peptides of protein N of SARS-CoV Urbani / Binding of serum 6 to looped/cyclic peptides of protein N of SARS-CoV Urbani / Binding of serum 37 to looped/cyclic peptides of protein N of SARS-CoV Urbani / Binding of serum 62 to looped/cyclic peptides of protein N of SARS-CoV Urbani / Binding of serum London to looped/cyclic peptides of protein N of SARS-CoV Urbani / Binding of serum SARS-green to looped/cyclic peptides of protein N of SARS-CoV Urbani: unit not given here
[2] = test system: control sera (pooled serum of ten healthy LUMC hospital workers; commercial negative donor pooled serum from the Dutch bloodbank); format: binding, human; design: Binding of Control serum LUMC to linear peptides / Binding of Control serum Blood-bank to linear peptides / Binding of Control serum LUMC to looped peptides / Binding of Control Serum Blood-Bank to Looped peptides / Binding of Control serum LUMC to linear peptides of the protein M of SARS-CoV Urbani / Binding of Control serum Blood-bank to linear peptides of the protein M of SARS-CoV Urbani / Binding of Control serum LUMC to looped peptides of the protein M of SARS-CoV Urbani / Binding of Control Serum Blood-Bank to Looped peptides of the protein M of SARS-CoV Urbani: unit not given here
[3] = test system: rabbit serum obtained by immunizing a rabbit with the SARS-CoV strain Frankfurt 1; format: binding; design: Binding of a rabbit serum to linear peptides / Binding of a rabbit serum to looped peptides / Rabbit serum linear peptides / Rabbit serum looped peptides / Binding of a rabbit serum to linear peptides of protein N of SARS-CoV Urbani (Rabbit serum linear peptides) / Binding of a rabbit serum to looped/cyclic peptides of protein N of SARS-CoV Urbani (Rabbit serum looped peptides): unit not given here

## LVRYNTRGNTYSTAW
[1]
  Binding of serum 1a to linear peptides of protein X5 of SARS-CoV Urbani: 0.7
  Binding of serum 1a to looped/cyclic peptides of protein X5 of SARS-CoV Urbani: 0.4
  Binding of serum 1b to linear peptides of protein X5 of SARS-CoV Urbani: 0.4
  Binding of serum 1b to looped/cyclic peptides of protein X5 of SARS-CoV Urbani: 0.2
  Binding of serum 2 to linear peptides of protein X5 of SARS-CoV Urbani: 0.5
  Binding of serum 2 to looped/cyclic peptides of protein X5 of SARS-CoV Urbani: 0.4
  Binding of serum 6 to linear peptides of protein X5 of SARS-CoV Urbani: 0.4
  Binding of serum 6 to looped/cyclic peptides of protein X5 of SARS-CoV Urbani: 0.3
  Binding of serum 37 to linear peptides of protein X5 of SARS-CoV Urbani: 0.6
  Binding of serum 37 to looped/cyclic peptides of protein X5 of SARS-CoV Urbani: 0.5
  Binding of serum 62 to linear peptides of protein X5 of SARS-CoV Urbani: 0.7
  Binding of serum 62 to looped/cyclic peptides of protein X5 of SARS-CoV Urbani: 0.6
  Binding of serum London to linear peptides of protein X5 of SARS-CoV Urbani: 0.6
  Binding of serum London to looped/cyclic peptides of protein X5 of SARS-CoV Urbani: 0.2
  Binding of serum SARS-green to linear peptides of protein X5 of SARS-CoV Urbani: 0.4
  Binding of serum SARS-green to looped/cyclic peptides of protein X5 of SARS-CoV Urbani: 0.3
  Binding of serum SARS-yellow to linear peptides of protein X5 of SARS-CoV Urbani: 0.3
  Binding of serum SARS-yellow to looped/cyclic peptides of protein X5 of SARS-CoV Urbani: 0.5
[2]
  Binding of Control Serum Blood-Bank to Looped peptides: 0.3
  Binding of Control serum Blood-bank to linear peptides: 0.8
  Binding of Control serum LUMC to linear peptides: 0.5
  Binding of Control serum LUMC to looped peptides: 0.5
[3]
  Rabbit serum linear peptides: 0.7
  Rabbit serum looped peptides: 0.3

## GNTYSTAWLCALGKV
[1]
  Binding of serum 1a to linear peptides of protein X5 of SARS-CoV Urbani: 0.8
  Binding of serum 1a to looped/cyclic peptides of protein X5 of SARS-CoV Urbani: 0.4
  Binding of serum 1b to linear peptides of protein X5 of SARS-CoV Urbani: 0.6
  Binding of serum 1b to looped/cyclic peptides of protein X5 of SARS-CoV Urbani: 0.2
  Binding of serum 2 to linear peptides of protein X5 of SARS-CoV Urbani: 0.9
  Binding of serum 2 to looped/cyclic peptides of protein X5 of SARS-CoV Urbani: 0.5
  Binding of serum 6 to linear peptides of protein X5 of SARS-CoV Urbani: 0.6
  Binding of serum 6 to looped/cyclic peptides of protein X5 of SARS-CoV Urbani: 0.3
  Binding of serum 37 to linear peptides of protein X5 of SARS-CoV Urbani: 0.7
  Binding of serum 37 to looped/cyclic peptides of protein X5 of SARS-CoV Urbani: 0.5
  Binding of serum 62 to linear peptides of protein X5 of SARS-CoV Urbani: 0.8
  Binding of serum 62 to looped/cyclic peptides of protein X5 of SARS-CoV Urbani: 0.7
  Binding of serum London to linear peptides of protein X5 of SARS-CoV Urbani: 0.7
  Binding of serum London to looped/cyclic peptides of protein X5 of SARS-CoV Urbani: 0.2
  Binding of serum SARS-green to linear peptides of protein X5 of SARS-CoV Urbani: 0.6
  Binding of serum SARS-green to looped/cyclic peptides of protein X5 of SARS-CoV Urbani: 0.3
  Binding of serum SARS-yellow to linear peptides of protein X5 of SARS-CoV Urbani: 0.4
  Binding of serum SARS-yellow to looped/cyclic peptides of protein X5 of SARS-CoV Urbani: 0.5
[2]
  Binding of Control Serum Blood-Bank to Looped peptides: 0.4
  Binding of Control serum Blood-bank to linear peptides: 0.9
  Binding of Control serum LUMC to linear peptides: 0.5
  Binding of Control serum LUMC to looped peptides: 0.6
[3]
  Rabbit serum linear peptides: 0.9
  Rabbit serum looped peptides: 0.6

## MESELVIGAVIIRGH
[1]
  Binding of serum 1a to linear peptides of protein M of SARS-CoV Urbani: 0.8
  Binding of serum 1a to looped/cyclic peptides of protein M of SARS-CoV Urbani: 0.7
  Binding of serum 1b to linear peptides of protein M of SARS-CoV Urbani: 0.7
  Binding of serum 1b to looped/cyclic peptides of protein M of SARS-CoV Urbani: 0.5
  Binding of serum 2 to linear peptides of protein M of SARS-CoV Urbani: 0.8
  Binding of serum 2 to looped/cyclic peptides of protein M of SARS-CoV Urbani: 0.6
  Binding of serum 6 to linear peptides of protein M of SARS-CoV Urbani: 0.6
  Binding of serum 6 to looped/cyclic peptides of protein M of SARS-CoV Urbani: 0.7
  Binding of serum 37 to linear peptides of protein M of SARS-CoV Urbani: 0.5
  Binding of serum 37 to looped/cyclic peptides of protein M of SARS-CoV Urbani: 0.7
  Binding of serum 62 to linear peptides of protein M of SARS-CoV Urbani: 0.5
  Binding of serum 62 to looped/cyclic peptides of protein M of SARS-CoV Urbani: 0.6
  Binding of serum London to linear peptides of protein M of SARS-CoV Urbani: 0.4
  Binding of serum London to looped/cyclic peptides of protein M of SARS-CoV Urbani: 0.2
  Binding of serum SARS-green to linear peptides of protein M of SARS-CoV Urbani: 0.7
  Binding of serum SARS-green to looped/cyclic peptides of protein M of SARS-CoV Urbani: 0.2
  Binding of serum SARS-yellow to linear peptides of protein M of SARS-CoV Urbani: 0.2
  Binding of serum SARS-yellow to looped/cyclic peptides of protein M of SARS-CoV Urbani: 0.6
[2]
  Binding of Control Serum Blood-Bank to Looped peptides of the protein M of SARS-CoV Urbani: 0.7
  Binding of Control serum Blood-bank to linear peptides of the protein M of SARS-CoV Urbani: 0.8
  Binding of Control serum LUMC to linear peptides of the protein M of SARS-CoV Urbani: 0.8
  Binding of Control serum LUMC to looped peptides of the protein M of SARS-CoV Urbani: 0.6
[3]
  Rabbit serum linear peptides: 0.2
  Rabbit serum looped peptides: 0.2

## NPETNILLNVPLRGT
[1]
  Binding of serum 1a to linear peptides of protein M of SARS-CoV Urbani: 0.8
  Binding of serum 1a to looped/cyclic peptides of protein M of SARS-CoV Urbani: 0.8
  Binding of serum 1b to linear peptides of protein M of SARS-CoV Urbani: 0.6
  Binding of serum 1b to looped/cyclic peptides of protein M of SARS-CoV Urbani: 0.7
  Binding of serum 2 to linear peptides of protein M of SARS-CoV Urbani: 0.8
  Binding of serum 2 to looped/cyclic peptides of protein M of SARS-CoV Urbani: 0.9
  Binding of serum 6 to linear peptides of protein M of SARS-CoV Urbani: 0.3
  Binding of serum 6 to looped/cyclic peptides of protein M of SARS-CoV Urbani: 0.7
  Binding of serum 37 to linear peptides of protein M of SARS-CoV Urbani: 0.9
  Binding of serum 37 to looped/cyclic peptides of protein M of SARS-CoV Urbani: 0.7
  Binding of serum 62 to linear peptides of protein M of SARS-CoV Urbani: 0.9
  Binding of serum 62 to looped/cyclic peptides of protein M of SARS-CoV Urbani: 0.7
  Binding of serum London to linear peptides of protein M of SARS-CoV Urbani: 0.3
  Binding of serum London to looped/cyclic peptides of protein M of SARS-CoV Urbani: 0.3
  Binding of serum SARS-green to linear peptides of protein M of SARS-CoV Urbani: 0.3
  Binding of serum SARS-green to looped/cyclic peptides of protein M of SARS-CoV Urbani: 0.4
  Binding of serum SARS-yellow to linear peptides of protein M of SARS-CoV Urbani: 0.1
  Binding of serum SARS-yellow to looped/cyclic peptides of protein M of SARS-CoV Urbani: 0.7
[2]
  Binding of Control Serum Blood-Bank to Looped peptides of the protein M of SARS-CoV Urbani: 0.8
  Binding of Control serum Blood-bank to linear peptides of the protein M of SARS-CoV Urbani: 0.7
  Binding of Control serum LUMC to linear peptides of the protein M of SARS-CoV Urbani: 0.4
  Binding of Control serum LUMC to looped peptides of the protein M of SARS-CoV Urbani: 0.9
[3]
  Rabbit serum linear peptides: 0.4
  Rabbit serum looped peptides: 0.2

## MDLFMRFFTLGSITA
[1]
  Binding of serum 1a to linear peptides of protein X1 of SARS-CoV Urbani: 0.8
  Binding of serum 1a to looped/cyclic peptide (PEPSCAN-ELISA): 0.5
  Binding of serum 1b to linear peptides of protein X1 of SARS-CoV Urbani: 0.7
  Binding of serum 1b to looped/cyclic peptide (PEPSCAN-ELISA): 0.3
  Binding of serum 2 to linear peptides of protein X1 of SARS-CoV Urbani: 0.7
  Binding of serum 2 to looped/cyclic peptide (PEPSCAN-ELISA): 0.4
  Binding of serum 6 to linear peptides of protein X1 of SARS-CoV Urbani: 0.5
  Binding of serum 6 to looped/cyclic peptide (PEPSCAN-ELISA): 1.0
  Binding of serum 37 to linear peptides of protein X1 of SARS-CoV Urbani: 0.7
  Binding of serum 37 to looped/cyclic peptide (PEPSCAN-ELISA): 0.4
  Binding of serum 62 to linear peptides of protein X1 of SARS-CoV Urbani: 0.7
  Binding of serum 62 to looped/cyclic peptide (PEPSCAN-ELISA): 0.5
  Binding of serum London to linear peptides of protein X1 of SARS-CoV Urbani: 0.3
  Binding of serum London to looped/cyclic peptide (PEPSCAN-ELISA): 0.8
  Binding of serum SARS-green to linear peptides of protein X1 of SARS-CoV Urbani: 0.6
  Binding of serum SARS-green to looped/cyclic peptide (PEPSCAN-ELISA): 0.4
  Binding of serum SARS-yellow to linear peptides of protein X1 of SARS-CoV Urbani: 0.5
  Binding of serum SARS-yellow to looped/cyclic peptide (PEPSCAN-ELISA): 0.5
[2]
  Binding of Control Serum Blood-Bank to Looped peptides: 0.6
  Binding of Control serum Blood-bank to linear peptides: 0.7
  Binding of Control serum LUMC to linear peptides: 0.6
  Binding of Control serum LUMC to looped peptides: 0.6
[3]
  Binding of a rabbit serum to linear peptides: 0.5
  Binding of a rabbit serum to looped peptides: 0.5
